The record followed here is ChEMBL document CHEMBL5356950, “Past, present and future of xanthine oxidase inhibitors: design strategies, structural and pharmacological insights, patents and clinical trials” (RSC Med Chem, 2023).

A value given as a limit tells only on which side of the number the result lay.

Data set [1] has as its target T1, Xanthine dehydrogenase/oxidase (Homo sapiens, UniProt P47989). The experiment in a line: Inhibition of XO (unknown origin) relative to control.
Data set [2] concerns the target T2, Xanthine dehydrogenase/oxidase (Bos taurus, UniProt P80457). The data set is described as follows: Inhibition of Bovine milk XO using xanthine as substrate at 100 uM measured after 10 mins by microplate reader analysis relative to control. As to conditions: cattle.
The target of data set [3] is T2, Xanthine dehydrogenase/oxidase. The experiment in a line: Inhibition of Bovine XO using xanthine as substrate assessed as decrease in uric acid level by spectrophotometric analysis.
For data set [4] the target is unchanged. The experiment in a line: Inhibition of Bovine milk XO using xanthine as substrate assessed as decrease in uric acid level measured after 5 mins by spectrophotometric analysis.
The target is the same in data set [5]. The experiment in a line: Inhibition of Bovine milk XO.
Data set [6] is described as follows: Toxicity in Wistar rat assessed as decrease in serum uric acid level at 1 mg/kg, po measured after 6 hrs. The class given is organism-based. Also noted: scale not given: the % may be the effect or the level left. The following applies: in vivo.
Data set [7] concerns the target T2, Xanthine dehydrogenase/oxidase. The experiment in a line: Inhibition of Bovine milk XO measured after 30 mins.
The target of data set [8] is T3, Solute carrier family 22 member 12 (Homo sapiens, UniProt Q96S37).
T3 sequence (Q96S37 whole entry): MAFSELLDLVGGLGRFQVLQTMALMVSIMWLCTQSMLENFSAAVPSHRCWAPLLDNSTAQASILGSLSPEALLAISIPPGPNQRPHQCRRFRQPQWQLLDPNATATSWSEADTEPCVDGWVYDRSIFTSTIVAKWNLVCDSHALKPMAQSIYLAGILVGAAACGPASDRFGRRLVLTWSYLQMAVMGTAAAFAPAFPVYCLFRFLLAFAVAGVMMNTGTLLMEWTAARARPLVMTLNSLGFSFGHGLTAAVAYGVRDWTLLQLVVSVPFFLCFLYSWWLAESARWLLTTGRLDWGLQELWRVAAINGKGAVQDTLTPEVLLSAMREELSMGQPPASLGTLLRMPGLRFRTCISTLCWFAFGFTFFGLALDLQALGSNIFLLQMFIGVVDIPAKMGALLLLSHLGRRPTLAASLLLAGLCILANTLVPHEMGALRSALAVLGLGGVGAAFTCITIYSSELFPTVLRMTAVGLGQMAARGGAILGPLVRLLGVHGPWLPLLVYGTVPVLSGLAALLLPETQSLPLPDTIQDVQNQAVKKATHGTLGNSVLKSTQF
The data set is described as follows: Inhibition of human URAT1.

Data set [9] has as its target T2, Xanthine dehydrogenase/oxidase. The data set is described as follows: Inhibition of Bovine milk XO using xanthine as substrate measured after 10 mins by spectrophotometric analysis.
The target is the same in data set [10]. The experiment in a line: Inhibition of Bovine milk XO using xanthine as substrate measured after 10 mins by spectrophotometric analysis relative to control. The following applies: cattle.
For data set [11] the target is unchanged. The data set is described as follows: Inhibition of Bovine XO using xanthine as substrate assessed as decrease in uric acid level measured after 10 mins by spectrophotometric analysis.
For data set [12], the target named is T3, Solute carrier family 22 member 12. The experiment in a line: Inhibition of URAT1 (unknown origin) assessed as decrease in uric acid level measured after 15 mins.
For data set [13] the target is unchanged. The data set is described as follows: Inhibition of URAT1 (unknown origin).
Data set [14] concerns the target T1, Xanthine dehydrogenase/oxidase. The experiment in a line: Inhibition of XO (unknown origin) using xanthine as substrate pre incubated for 5 mins followed by substrate addition measured after 1 mins by spectrophotometric analysis.
Data set [15] concerns the target T2, Xanthine dehydrogenase/oxidase. The data set is described as follows: Inhibition of Bovine milk XO using xanthine as substrate assessed as decrease in uric acid level pre incubated for 15 mins followed by substrate addition measured after 30 mins by spectrophotometric analysis.
Data set [16] deals with T1, Xanthine dehydrogenase/oxidase. The experiment in a line: Inhibition of XO (unknown origin) using xanthine as substrate pre incubated for 15 mins followed by substrate addition measured after 30 mins by UV-VIS spectrophotometer analysis.
For data set [17] the target is unchanged. The experiment in a line: Inhibition of XO (unknown origin) using xanthine as substrate measured after 10 mins.
Data set [18] shares this target. The data set is described as follows: Inhibition of XO (unknown origin) using xanthine as substrate pre incubated for 10 mins followed by substrate addition measured after 15 mins.
Data set [19] has as its target T2, Xanthine dehydrogenase/oxidase. The experiment in a line: Inhibition of Bovine milk XO using xanthine as substrate pre incubated for 5 mins followed by substrate addition measured after 30 mins by spectrophotometric analysis.
Data set [20] shares this target. The data set is described as follows: Inhibition of Bovine milk XO using xanthine as substrate assessed as decrease in uric acid level measured after 15 mins by spectrophotometric analysis.
Data set [21] is described as follows: Toxicity in rat assessed as hypouricemic activity at 1 mg/kg. The following applies: in vivo. The class given is organism-based.
Data set [22] can be described thus: Toxicity in rat assessed as hypouricemic activity at 3 mg/kg measured after 24 hrs. As to conditions: in vivo. In kind it is organism-based.
The target in data set [23] is T1, Xanthine dehydrogenase/oxidase. The experiment in a line: Inhibition of XO (unknown origin) using xanthine as substrate measured after 2 to 3 mins by UV-spectrophotometric analysis.
Data set [24] addresses T2, Xanthine dehydrogenase/oxidase. The experiment in a line: Inhibition of Bovine XO using xanthine as substrate assessed as decrease in uric acid level preincubated for 15 mins followed by substrate addition measured after 2 mins by spectrophotometric analysis.
Data set [25] concerns the target T4, Xanthine dehydrogenase/oxidase (Mus musculus, UniProt Q00519). The experiment in a line: Inhibition of mouse serum XO assessed as decrease in uric acid level measured after 2 hrs relative to control.
Data set [26] addresses T4, Xanthine dehydrogenase/oxidase. The experiment in a line: Inhibition of mouse serum XO assessed as decrease in uric acid level measured after 6 hrs relative to control.
In data set [27] the target is T1, Xanthine dehydrogenase/oxidase. The data set is described as follows: Inhibition of XO (unknown origin) using xanthine as substrate assessed as decrease in uric acid level measured after 3 mins by spectrophotometric analysis.

T1 sequence (P47989 whole entry): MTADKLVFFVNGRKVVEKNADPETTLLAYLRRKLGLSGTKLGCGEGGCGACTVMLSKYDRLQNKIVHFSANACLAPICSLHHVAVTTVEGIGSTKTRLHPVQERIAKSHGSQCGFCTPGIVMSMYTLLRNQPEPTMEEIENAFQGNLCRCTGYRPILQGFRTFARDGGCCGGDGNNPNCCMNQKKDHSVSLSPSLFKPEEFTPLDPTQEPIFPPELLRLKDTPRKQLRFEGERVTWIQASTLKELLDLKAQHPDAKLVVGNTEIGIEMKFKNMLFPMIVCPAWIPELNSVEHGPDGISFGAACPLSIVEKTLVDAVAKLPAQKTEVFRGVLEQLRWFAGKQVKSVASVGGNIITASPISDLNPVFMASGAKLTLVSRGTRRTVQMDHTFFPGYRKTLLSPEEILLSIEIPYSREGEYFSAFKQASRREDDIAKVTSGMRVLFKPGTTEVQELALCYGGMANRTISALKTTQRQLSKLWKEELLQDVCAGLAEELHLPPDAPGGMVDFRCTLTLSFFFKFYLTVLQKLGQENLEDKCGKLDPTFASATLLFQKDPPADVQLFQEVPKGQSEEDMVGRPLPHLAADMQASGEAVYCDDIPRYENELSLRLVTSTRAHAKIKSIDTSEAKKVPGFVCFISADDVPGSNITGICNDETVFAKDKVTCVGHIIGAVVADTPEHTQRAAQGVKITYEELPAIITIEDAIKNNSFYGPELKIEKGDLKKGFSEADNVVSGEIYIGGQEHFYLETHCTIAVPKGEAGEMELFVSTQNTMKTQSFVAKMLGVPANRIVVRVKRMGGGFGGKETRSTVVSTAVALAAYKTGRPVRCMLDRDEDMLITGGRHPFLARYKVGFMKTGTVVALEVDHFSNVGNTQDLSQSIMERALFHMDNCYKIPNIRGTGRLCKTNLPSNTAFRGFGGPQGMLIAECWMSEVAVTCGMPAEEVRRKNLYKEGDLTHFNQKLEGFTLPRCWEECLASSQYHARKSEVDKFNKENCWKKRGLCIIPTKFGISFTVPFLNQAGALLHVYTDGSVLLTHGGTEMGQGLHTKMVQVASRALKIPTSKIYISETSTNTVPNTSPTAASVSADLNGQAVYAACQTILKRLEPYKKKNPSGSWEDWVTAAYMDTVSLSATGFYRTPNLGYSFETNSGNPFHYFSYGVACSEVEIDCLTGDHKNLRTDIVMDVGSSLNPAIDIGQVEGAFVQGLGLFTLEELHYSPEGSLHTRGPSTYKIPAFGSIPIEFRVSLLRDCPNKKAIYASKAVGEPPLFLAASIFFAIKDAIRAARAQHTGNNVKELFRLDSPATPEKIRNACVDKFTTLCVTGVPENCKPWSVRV
T2 sequence (P80457 whole entry): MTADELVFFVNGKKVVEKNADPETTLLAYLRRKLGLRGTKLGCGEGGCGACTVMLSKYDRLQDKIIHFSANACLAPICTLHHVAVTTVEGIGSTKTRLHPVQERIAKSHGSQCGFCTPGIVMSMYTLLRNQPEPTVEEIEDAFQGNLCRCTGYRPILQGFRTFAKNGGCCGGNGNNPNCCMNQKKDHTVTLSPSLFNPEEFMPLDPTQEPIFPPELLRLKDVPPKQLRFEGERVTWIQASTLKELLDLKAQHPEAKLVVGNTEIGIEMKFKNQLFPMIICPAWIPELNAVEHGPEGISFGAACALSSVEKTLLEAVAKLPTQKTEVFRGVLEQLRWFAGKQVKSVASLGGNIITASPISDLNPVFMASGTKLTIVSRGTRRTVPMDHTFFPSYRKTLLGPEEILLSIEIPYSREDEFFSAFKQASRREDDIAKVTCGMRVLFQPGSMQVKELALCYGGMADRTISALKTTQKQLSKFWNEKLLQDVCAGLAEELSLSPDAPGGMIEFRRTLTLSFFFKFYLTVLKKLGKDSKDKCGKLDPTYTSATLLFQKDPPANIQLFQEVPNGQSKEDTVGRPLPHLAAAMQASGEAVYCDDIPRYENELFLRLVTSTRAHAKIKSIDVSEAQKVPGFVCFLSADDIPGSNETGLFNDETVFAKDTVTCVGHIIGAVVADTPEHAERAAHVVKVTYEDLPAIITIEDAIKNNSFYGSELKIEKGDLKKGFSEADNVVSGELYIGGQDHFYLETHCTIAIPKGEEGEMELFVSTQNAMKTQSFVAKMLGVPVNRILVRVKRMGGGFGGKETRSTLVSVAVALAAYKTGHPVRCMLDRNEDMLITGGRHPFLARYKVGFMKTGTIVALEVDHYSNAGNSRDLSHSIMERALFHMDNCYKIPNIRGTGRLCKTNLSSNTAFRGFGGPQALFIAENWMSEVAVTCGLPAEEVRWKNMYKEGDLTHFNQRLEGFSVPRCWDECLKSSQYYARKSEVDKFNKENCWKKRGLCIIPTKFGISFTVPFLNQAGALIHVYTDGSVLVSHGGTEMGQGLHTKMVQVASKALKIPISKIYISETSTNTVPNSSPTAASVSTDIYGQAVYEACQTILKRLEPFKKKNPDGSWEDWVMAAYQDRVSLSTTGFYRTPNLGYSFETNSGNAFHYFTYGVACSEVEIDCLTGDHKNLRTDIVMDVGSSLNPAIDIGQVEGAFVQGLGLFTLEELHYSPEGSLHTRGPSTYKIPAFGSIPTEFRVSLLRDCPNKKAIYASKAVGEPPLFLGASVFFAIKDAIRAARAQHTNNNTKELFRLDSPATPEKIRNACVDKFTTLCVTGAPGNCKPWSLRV
T4 sequence (Q00519 whole entry): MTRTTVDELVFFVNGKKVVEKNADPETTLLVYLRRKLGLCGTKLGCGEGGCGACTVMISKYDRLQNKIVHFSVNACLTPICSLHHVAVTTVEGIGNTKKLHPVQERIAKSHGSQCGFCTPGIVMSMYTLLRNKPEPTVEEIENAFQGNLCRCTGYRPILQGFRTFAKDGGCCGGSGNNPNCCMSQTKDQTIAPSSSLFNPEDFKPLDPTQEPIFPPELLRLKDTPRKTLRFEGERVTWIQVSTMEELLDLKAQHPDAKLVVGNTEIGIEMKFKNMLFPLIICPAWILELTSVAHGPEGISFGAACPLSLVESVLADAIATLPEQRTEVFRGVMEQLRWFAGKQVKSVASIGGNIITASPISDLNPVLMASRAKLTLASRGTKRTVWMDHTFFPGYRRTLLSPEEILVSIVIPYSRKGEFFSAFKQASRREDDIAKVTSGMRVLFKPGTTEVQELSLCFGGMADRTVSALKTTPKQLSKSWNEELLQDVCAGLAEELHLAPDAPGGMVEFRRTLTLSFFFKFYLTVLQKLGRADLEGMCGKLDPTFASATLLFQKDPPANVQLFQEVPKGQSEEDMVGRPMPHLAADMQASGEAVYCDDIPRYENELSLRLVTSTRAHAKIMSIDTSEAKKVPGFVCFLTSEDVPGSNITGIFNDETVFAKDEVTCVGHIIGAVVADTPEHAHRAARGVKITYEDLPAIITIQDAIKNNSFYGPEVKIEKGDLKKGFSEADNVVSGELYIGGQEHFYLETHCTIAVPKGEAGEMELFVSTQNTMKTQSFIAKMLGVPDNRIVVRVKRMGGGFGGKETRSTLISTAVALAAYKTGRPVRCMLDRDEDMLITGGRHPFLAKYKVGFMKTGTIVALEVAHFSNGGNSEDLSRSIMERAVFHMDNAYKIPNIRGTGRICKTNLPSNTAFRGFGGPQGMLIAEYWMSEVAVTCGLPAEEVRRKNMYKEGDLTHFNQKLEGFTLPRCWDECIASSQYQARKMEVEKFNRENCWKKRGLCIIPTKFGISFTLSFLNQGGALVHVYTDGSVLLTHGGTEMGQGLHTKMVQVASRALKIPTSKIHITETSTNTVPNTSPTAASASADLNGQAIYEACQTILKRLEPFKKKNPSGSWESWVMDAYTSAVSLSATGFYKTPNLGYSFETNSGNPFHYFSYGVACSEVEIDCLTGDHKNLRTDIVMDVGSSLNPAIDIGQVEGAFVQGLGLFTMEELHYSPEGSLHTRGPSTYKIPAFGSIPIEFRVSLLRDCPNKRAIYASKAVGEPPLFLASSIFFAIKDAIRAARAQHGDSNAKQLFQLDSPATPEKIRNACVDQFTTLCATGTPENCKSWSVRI

With `Clc1cc2nc(-c3ccncc3)[nH]c2cc1Cl`, in data set [1], the “inhibition (INH)” value is on record as 56%.
Consider `N#Cc1cn(-c2ccc(C(=O)O)c(O)c2)cc1-c1cccs1`, for which the inhibition – broadly, how much of the control response was suppressed – at 100 µM in data set [2] is over 90%.
The same measure, in the same setting: the value for `CCCCc1cn(-c2ccc(C(=O)O)c(O)c2)cc1C#N` was over 90%.
For the compound `O=C(O)c1ccc2c(c1)C(=O)N(c1ccccc1)C2=O`, the IC50 (usually the concentration that gives 50% inhibition) in [3] came out at 7.15 µM.
For `O=c1oc2cc(O)cc(O)c2cc1-c1cccc(O)c1`, the IC50 in data set [4] is 2.13 µM.
Take `OCc1ccc(O)c(O)c1`: half-maximal inhibition in data set [5] (IC50) was put at 3 µM.
As to `Cc1cc(-c2nc(-c3ccc(OCC(C)C)c([N+](=O)[O-])c3)n[nH]2)ccn1`, in [6], the Activity stood at 66.5%.
Regarding `Cc1cc(-c2n[nH]c(-c3ccc(OCC(C)C)c(C#N)c3)n2)ccn1`, in data set [6], the Activity is 67.5%.
`Cc1nc(-c2cc(I)c3c(c2)CCC(C)(C)O3)sc1C(=O)O` gave an IC50 in [7] of 0.00187 µM.
Regarding `CCC1(C)Cc2cc(-c3nc(C)c(C(=O)O)s3)cc(C#N)c2O1` (stereo unspecified), half-maximal inhibition in data set [7] (IC50) required 0.00135 µM.
`COC(=O)C(Sc1nnc(Br)n1-c1ccc(Br)c2ccccc12)C(=O)OC` registered an IC50 in data set [8] of 0.0197 µM.
`Cc1ccc2c(-c3ccc(C(=O)O)c(O)c3)cc(C#N)n2n1` registered a concentration for half-maximal inhibition (IC50) in [9] of 0.003 µM. Further, the “inhibition (INH)” value in [10] is listed as 60%.
For `COc1cc(OC)c(C(=O)/C=C/c2ccccc2F)c(O)c1C(=O)/C=C/c1ccccc1F`, in data set [11], the IC50 was determined as 0.728 µM.
With `N#Cc1ccc(NS(=O)(=O)c2ccccc2OC(F)(F)F)cc1Cl`, the IC50 in data set [12] was found to be 0.006 µM.
`O=C(Nc1ccc(-c2nnn[nH]2)cc1)c1c(O)[nH]c(=S)[nH]c1=O` returned an IC50 in [13] of 0.39 µM.
`COc1ccc(-c2cc3cc([N+](=O)[O-])ccc3oc2=O)cc1` had an IC50 in [14] of 8.4 µM.
Turning to `O=[N+]([O-])c1ccc(CSc2nnc(-c3cc(-c4ccccc4)nn3Cc3ccccc3)o2)cc1`, in [15], the IC50 was found to be 72.4 µM.
For `O=Cc1ccc(C2Nc3ccccc3-c3cc(-c4ccccc4)nn32)c([N+](=O)[O-])c1` (stereo unspecified), the IC50 in data set [16] came out at 11 µM.
`Cc1nc(-c2cc(C#N)c3c(c2)CCC(C)(C)O3)[se]c1C(=O)O`: the IC50 in data set [7] turned out to be 0.00236 µM.
On to `Cc1nc(-c2cc(C#N)c3c(c2)CC2(CCCCC2)O3)sc1C(=O)O`, for which, in [7], the IC50 stood at 0.0014 µM.
On the same count and under the same terms, then `Cc1nc(-c2cc(C#N)c3c(c2)CCC(C)(C)O3)sc1C(=O)O`, with 0.00265 µM.
Regarding `Nn1c(S)nnc1-c1cc(-c2ccccc2)nn1Cc1ccccc1`, in data set [15], the IC50 is 65.4 µM.
With `Cc1nc(-c2cc(C#N)c3c(c2)CC2(CCCC2)O3)[se]c1C(=O)O`, in data set [7], the IC50 is 0.00158 µM.
Regarding `COCOc1cccc(-c2c[nH]cc2C#N)c1`, the inhibition at 100 µM in [2] is over 90%.
As to `N#Cc1c(Cl)cc(NS(=O)(=O)c2ccccc2OC(F)(F)F)cc1Cl`, the IC50 in [12] came to 0.004 µM.
As for `O=C1CC(c2ccccc2)Oc2c3c(c(CO)c(O)c21)OCN(c1ccc(F)cc1)C3` (stereo unspecified), the “inhibition (INH)” value in data set [1] was 84.27%.
Take `COC(=O)[C@H]1C[C@@H](n2cc(-c3ccccc3)nn2)[C@H](O)C[C@H]1C(=O)OC`: the IC50 in data set [17] is 0.586 µM.
Turning to `O=C(NC(Cc1ccccc1)C(=O)O)c1ccc2c(c1)C(=O)c1ccccc1C2=O` (stereo unspecified), in [11], the concentration for half-maximal inhibition (IC50) is 2.9 µM.
In turn, `CN1C(=O)C(=Cc2ccc(Cl)cc2Cl)C(=O)N(C)C1=O` gave an IC50 in data set [18] of 21000 µM.
`Cc1nn(-c2ccc(OCCC(C)C)c(C#N)c2)nc1C(=O)O`: the IC50 in data set [19] is 0.084 µM.
As for `O=[N+]([O-])c1cc(C2=NC3=CN=CN(O)C3S2)ccc1Oc1ccccc1F` (stereo unspecified), the concentration for half-maximal inhibition (IC50) in data set [9] is 0.0054 µM.
In turn, `CCOC(=O)c1sc(-c2cc(I)c3c(c2)CCC(C)(C)O3)nc1C` registered an IC50 in data set [7] of 0.0013 µM.
Turning to `O=C(/C=C/c1cc(O)cc(O)c1)c1ccc(O)cc1O`, the IC50 in [20] came to 22.5 µM.
`Cc1nc(-c2ccc(OC(C)C)c(-n3cnnn3)c2)sc1C(=O)O`: the Activity in [21] is given as 50%.
Take `Cc1nc(-c2ccc(OCC(C)(C)C)c(-n3cnnn3)c2)sc1C(=O)O`: the figures for the Activity in [22] and in data set [21] were 40% and 50%, respectively.
Consider `Cc1nc(-c2cc(C#N)c3c(c2)CC(C)O3)sc1C(=O)O` (stereo unspecified), for which inhibition in [7] was half-maximal at 0.00184 µM (IC50).
In turn, `COc1ccc([C@@H]2C/C(=N\c3ccc([N+](=O)[O-])cc3Cl)C3C(O)=CC(O[C@H]4C[C@@H](OC5O[C@H](C)[C@@H](O)[C@H](O)C5O)[C@H](O)[C@@H](O)[C@@H]4O)=CC3O2)cc1O` (stereo partly specified) showed an IC50 in data set [23] of 0.263 µM.
Regarding `Cc1nc(-c2ccc(OCC(C)C)c(-n3cnnn3)c2)sc1C(=O)O`, the values for the Activity in data set [22] and in data set [21] were 40% and 50%, respectively.
As for `O=c1[nH]c(-c2ccc(OCC3CCCCC3)c(-n3cnnn3)c2)no1`, in [24], the concentration for half-maximal inhibition (IC50) came to 0.121 µM.
The compound `Cc1cc(C)c(C[n+]2cn(CCO)c3ccccc32)c(C)c1` came in with an IC50 in data set [17] of 1.25 µM.
Take `Oc1ncnc2[nH]ncc12` [ALLOPURINOL]: the results for the “inhibition (INH)” value in data set [25] and in [26] were 33% and 14%, respectively.
Consider `COc1ccc2c(c1)c(CC(=O)O)c(C)n2C(=O)c1ccc(Cl)cc1` [INDOMETHACIN], for which the IC50 in [27] came to 86 µM.
